Test results from patent US20130296417A1, “Theaflavin Compositions, Production, and Method to Control Physiological Disorders in Mammals” (JANGSU DEHE BIO-TECH CO., LTD., priority 2010, published 2013).

Tested on: Madin-Darby canine kidney (MDCK) cells
Test: Cytotoxicity (CC50) in MDCK cells (Example II)

For `O=C(O[C@@H]1Cc2c(O)cc(O)cc2O[C@@H]1c1cc(O)c(O)c(O)c1)c1cc(O)c(O)c(O)c1` [EGCG, (−)-epigallocatechin-3-gallate], the “CC50” value was greater than 100 µg/mL.
